The record followed here is patent US20260258035A1, “FIVE-MEMBERED AND SIX-MEMBERED NITROGEN-CONTAINING COMPOUND, AND INTERMEDIATE, PREPARATION METHOD AND USE THEREOF” (HANGZHOU SYNRX THERAPEUTICS BIOMEDICAL TECHNOLOGY CO., LTD., priority 2022, published 2026).

In brackets after ≈: the same amount, converted by molar mass. Read-outs that look alike come from different tables or passages of the source.

A short description of series [1]: Solubility assay (FaSSGF / FaSSIF). It counts as physicochemical. The following applies: kinetic from dmso stock, 2 h at 25° C. How it is done:
1). Preparation of Solutions:
The FaSSGF solution was prepared as follows: • a) preparation of FaSSGF buffer: dissolve 2.0 g of NaCl as the raw material in about 0.9 L of purified water; • b) adjustment of the pH of the buffer: adjust the pH of the buffer to 1.6 with 1N HCL, and replenish the buffer with purified water to the volume of 1 L; and • c) preparation of FaSSGF solution by addition of FaSSGF powder: add 0.06 g of the FaSSGF powder to about 0.5 L of the buffer, stir until the powder was completely dissolved, and make up for the volume (1 L) with the buffer.
The FaSSIF solution was prepared as follows: • a) preparation of FaSSIF buffer: dissolve 0.42 g of NaOH, 3.44 g of anhydrous NaH2PO4, and 6.19 g of NaCl as raw materials in about 0.9 L of purified water; • b) adjustment the pH of the buffer: adjust the pH of the buffer to 6.5 with 1 N NaOH or 1 N HCL, and replenish the buffer with purified water to the volume of 1 L; and • c) preparation of FaSSIF solution by addition of FaSSIF powder: add 2.24 g of the FaSSIF powder to about 0.5 L of the buffer, stir until the powder was completely dissolved, and make up for the volume (1 L) with the buffer.
2). Preparation of the Solution of Control Compound:
The control compound was weighed and dissolved in DMSO to 10 mM to obtain a stock solution.
3) Preparation of the Solution of Compound to be Tested:
The compound to be tested was formulated into a 10 mM DMSO stock solution.
4) Preparation of Internal Standard Solution:
a) The internal standard was weighed and dissolved in DMSO to 10 mM to obtain an internal standard stock solution (ISTD stock solution).
b) The internal standard stock solution was diluted to 500 nM (Tolbutamide) with an ACN:methano mixture (volume ratio: 1:1) to obtain a quenching solution.
a) The FaSSGF solution at pH 1.6 and the FaSSIF solution at pH 6.5 were pre-warmed; and then, the compound was injected into the buffer.
Once done, the samples were centrifuged at 12,000 rpm for 10 min, and the supernatant was transferred to a new tube. The supernatant was diluted 10-fold and 100-fold with the FaSSGF solution at pH 1.6 or the FaSSIIF solution at pH 6.5. 20 μL of each sample (1×, 10×, 100× and standard curve) was added to 500 μL of the IS solution. The resulting mixture was vortexed vigorously for 1 min and centrifuged at 4,500 rpm for 15 min at 4° C. 150 μL of the supernatant was transferred for LC-MS/MS sample analysis.

Series [2] has as its system Human breast squamous carcinoma cells HCC1806. In words: Cell function assay (In-Cell Western, PAR/pADPr after MMS). The series is classed as cell-based. The settings on record: read-out: IC50 (nM) in cell function assay. A digest of the protocol: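 HCC1806 cells adhered 24 h at 37 °C, 5% CO2, then were pretreated 1 h with compound (30000 nM down to 1 nM, plus 0 nM) or DMSO. MMS was then added at 0.5 mM final for 1 h before In-Cell Western detection of PAR/pADPr.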

In series [3] the target is PARG (Homo sapiens, UniProt Q86W56). The experiment in a line: Biochemical assay (PARG, TFMU-ADPr substrate).
Sequence of PARG (Q86W56 whole entry): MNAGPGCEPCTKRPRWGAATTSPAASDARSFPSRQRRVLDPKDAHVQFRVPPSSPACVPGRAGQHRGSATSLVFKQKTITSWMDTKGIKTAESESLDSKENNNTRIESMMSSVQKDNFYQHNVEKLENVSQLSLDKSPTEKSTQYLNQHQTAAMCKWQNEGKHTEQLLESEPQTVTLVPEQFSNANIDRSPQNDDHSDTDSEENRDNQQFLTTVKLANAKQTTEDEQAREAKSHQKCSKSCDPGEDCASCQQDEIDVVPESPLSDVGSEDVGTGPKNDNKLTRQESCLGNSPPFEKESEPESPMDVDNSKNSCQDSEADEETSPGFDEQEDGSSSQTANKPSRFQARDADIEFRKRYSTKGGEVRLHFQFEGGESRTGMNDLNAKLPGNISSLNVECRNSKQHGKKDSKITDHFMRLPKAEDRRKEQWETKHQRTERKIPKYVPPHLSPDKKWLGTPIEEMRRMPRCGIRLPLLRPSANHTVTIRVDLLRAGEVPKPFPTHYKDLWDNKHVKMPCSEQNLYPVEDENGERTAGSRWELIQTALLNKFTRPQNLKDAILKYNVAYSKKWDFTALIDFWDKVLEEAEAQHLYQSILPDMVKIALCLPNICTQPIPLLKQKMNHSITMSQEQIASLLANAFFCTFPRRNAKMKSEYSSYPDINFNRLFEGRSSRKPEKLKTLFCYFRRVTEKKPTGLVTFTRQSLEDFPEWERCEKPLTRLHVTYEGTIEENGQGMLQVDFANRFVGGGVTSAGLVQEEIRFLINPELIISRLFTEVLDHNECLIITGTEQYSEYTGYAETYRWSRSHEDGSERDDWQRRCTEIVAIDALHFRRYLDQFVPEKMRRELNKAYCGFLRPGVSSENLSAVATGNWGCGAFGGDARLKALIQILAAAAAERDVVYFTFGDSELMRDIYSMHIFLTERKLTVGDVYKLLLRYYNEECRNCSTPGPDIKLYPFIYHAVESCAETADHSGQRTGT
In series [4] the test system is HCC1806. The experiment in a line: Cell viability assay (CellTiter-Glo). The series is classed as cell-based, Human. The settings on record: HCC1806, 7 days, CellTiter-Glo, read-out: IC50 (nM) in cell viability assay. For orientation: Cellular ATP, detected with luciferase, serves as a proxy for viable cell number.
Where [5] appears, read: fassgf or other biorelevant, FaSSGF solution pH 1.6, 100 μM from DMSO stock, read-out: FaSSGF solubility.
[6] abbreviates: FaSSIF solution pH 6.5, 100 μM from DMSO stock, read-out: FaSSIF solubility.
Setting [7] is: HCC1806, In-Cell Western, MMS treatment.
The mark [8] stands for this setting: HCC1806, compound 1 h then 0.5 mM MMS 1 h, PAR/pADPr antibody, In-Cell Western.
The mark [9] stands for this setting: 4 nM PARG, 66.2 uM TFMU-ADPr, 3 min at room temperature.

For `CC(C)C(=O)N1CCN(c2cc(S(=O)(=O)NC3(CF)COC3)cn3c(-c4nnc(C(F)F)s4)ncc23)CC1` [Example 60, 3-(5-(difluoromethyl)-1,3,4-thiadiazol-2-yl)-N-(3-(fluoromethyl)oxetan-3-yl)-8-(4-isobutyrylpiperazin-1-yl)imidazo[1,5-a]pyridine-6-sulfonamide], the results for the solubility at 2 h in series [1] (setting [5]) and in series [1] (setting [6]) were 3.83 µM (≈ 2.2 µg/mL) and 10 µM (≈ 5.74 µg/mL), respectively. In addition, the IC50 in series [2] (setting [7]) was 2.85 nM; in series [2] (setting [8]), greater than 1000 nM; in series [3] (setting [9]) it was less than 100 nM; in series [3] (PARG, TFMU-ADPr substrate), 0.19 nM; in series [4], 438 nM; in series [4] (Homo sapiens, HCC1806, 168 h) it was less than 500 nM.

Regarding `CC1(O)CCN(c2cc(S(=O)(=O)NC3(CF)CC3)cn3c(-c4nnc(C(F)F)s4)nnc23)CC1` [Example 107, 3-(5-(difluoromethyl)-1,3,4-thiadiazol-2-yl)-N-(1-(fluoromethyl)cyclopropyl)-8-(4-hydroxy-4-methylpiperidin-1-yl)-[1,2,4]triazolo[4,3-a]pyridine-6-sulfonamide], the solubility at 2 h was 15.9 µM (≈ 8.23 µg/mL) in series [1] (setting [5]) and 24.2 µM (≈ 12.5 µg/mL) in series [1] (setting [6]). Moreover, the IC50 in series [2] (setting [7]) is 74 nM; in series [2] (setting [8]), less than 100 nM; in series [3] (setting [9]), less than 100 nM; in series [3] (PARG, TFMU-ADPr substrate) it was 2.04 nM; in series [4], 513 nM; in series [4] (Homo sapiens, HCC1806, 168 h), 500 to 5000 nM.

`C[C@@H]1CN(c2cc(S(=O)(=O)NC3(CF)CC3)cn3c(-c4nnc(C(F)F)s4)nnc23)CCN1C(=O)C1(C)CC1` [Example 120, (R)-3-(5-(difluoromethyl)-1,3,4-thiadiazol-2-yl)-N-(1-(fluoromethyl)cyclopropyl)-8-(3-methyl-4-(1-methylcyclopropane-1-carbonyl)piperazin-1-yl)-[1,2,4]triazolo[4,3-a]pyridine-6-sulfonamide]: the solubility at 2 h in series [1] (setting [5]) came out at 81.8 µM (≈ 47.8 µg/mL); in series [1] (setting [6]), 140 µM (≈ 81.9 µg/mL). In addition, the IC50 in series [2] (setting [7]) is 2.28 nM; in series [2] (setting [8]), less than 100 nM; in series [3] (setting [9]) it was less than 100 nM; in series [3] (PARG, TFMU-ADPr substrate) it was 1.49 nM.

As to `CC(C)C(=O)N1CCN(c2cc(S(=O)(=O)NC3(C)COC3)cn3c(-c4nnc(C(F)F)s4)nc(Cl)c23)C[C@H]1C` [Example 124, (R)-1-chloro-3-(5-(difluoromethyl)-1,3,4-thiadiazol-2-yl)-8-(4-isobutyryl-3-methylpiperazin-1-yl)-N-(3-methyloxetan-3-yl)imidazo[1,5-a]pyridine-6-sulfonamide], the solubility at 2 h was determined as 38.5 µM (≈ 23.3 µg/mL) in series [1] (setting [5]) and 88.2 µM (≈ 53.3 µg/mL) in series [1] (setting [6]). Also, the IC50 was 2.54 nM in series [3] (PARG, TFMU-ADPr substrate) and 759 nM in series [4] (Homo sapiens, HCC1806, 168 h).

For `[2H]c1nc(-c2nnc(C(F)F)s2)n2cc(S(=O)(=O)NC3(C)COC3)cc(N3CCN(C(=O)C(C)C)CC3)c12` [Example 159, 3-(5-(difluoromethyl)-1,3,4-thiadiazol-2-yl)-8-(4-isobutyrylpiperazin-1-yl)-N-(3-methyloxetan-3-yl)imidazo[1,5-a]pyridine-6-sulfonamide-1-d], the solubility at 2 h in series [1] (setting [5]) turned out to be 5.19 µM (≈ 2.89 µg/mL); in series [1] (setting [6]) it was 17.4 µM (≈ 9.69 µg/mL). The IC50 in series [2] (setting [7]) was 1.12 nM; in series [2] (setting [8]), less than 100 nM; in series [3] (setting [9]), less than 100 nM; in series [3] (PARG, TFMU-ADPr substrate), 0.46 nM.

Take `CC1(NS(=O)(=O)c2cc(N3CCN(C(=O)C4CC4)CC3)c3cnc(-c4nnc(C(F)(F)F)s4)n3c2)COC1` [Example 175, 8-(4-(cyclopropanecarbonyl)piperazin-1-yl)-N-(3-methyloxetan-3-yl)-3-(5-(trifluoromethyl)-1,3,4-thiadiazol-2-yl)imidazo[1,5-a]pyridine-6-sulfonamide]: the solubility at 2 h in series [1] (setting [5]) came to 21.5 µM (≈ 12.3 µg/mL); in series [1] (setting [6]) it was 97.2 µM (≈ 55.6 µg/mL). Moreover, the IC50 was determined as 18.2 nM in series [3] (PARG, TFMU-ADPr substrate) and 565 nM in series [4] (Homo sapiens, HCC1806, 168 h).

`CN(C)C(=O)N1CCN(c2cc(S(=O)(=O)NC3(C#N)CC3)cn3c(-c4nnc(C(F)(F)F)s4)ncc23)CC1` [Example 227, 4-(6-(N-(1-cyanocyclopropyl)sulfamoyl)-3-(5-(trifluoromethyl)-1,3,4-thiadiazol-2-yl)imidazo[1,5-a]pyridin-8-yl)-N,N-dimethylpiperazine-1-carboxamide]: the solubility at 2 h in series [1] (setting [5]) worked out at 73.8 µM (≈ 42 µg/mL); in series [1] (setting [6]), 82.4 µM (≈ 46.9 µg/mL). In addition, the IC50 came to 5.01 nM in series [3] (PARG, TFMU-ADPr substrate) and 300 nM in series [4] (Homo sapiens, HCC1806, 168 h).

For `CC1(C(=O)N2CCN(c3cc(S(=O)(=O)NC4(C#N)CC4)cn4c(-c5nnc(C(F)(F)F)s5)ncc34)CC2)CCCO1` (centres unmarked) [Example 298, N-(1-cyanocyclopropyl)-8-(4-(2-methyltetrahydrofuran-2-carbonyl)piperazin-1-yl)-3-(5-(trifluoromethyl)-1,3,4-thiadiazol-2-yl)imidazo[1,5-a]pyridine-6-sulfonamide], the solubility at 2 h is greater than 100 µM in series [1] (setting [5]) and 97.7 µM (≈ 59.7 µg/mL) in series [1] (setting [6]). The IC50 worked out at 19.1 nM in series [3] (PARG, TFMU-ADPr substrate) and 175 nM in series [4] (Homo sapiens, HCC1806, 168 h).

In general, solubility refers to the concentration that dissolves in the medium under given conditions. Broadly, the IC50 is the midpoint of a concentration-inhibition curve.
